We go through two compounds from US20210228463A1, “COMPOSITION FOR FAT FORMATION INHIBITION AND BODY FAT REDUCTION, CONTAINING HYDRANGENOL AS ACTIVE INGREDIENT” (COSMAX BIO CO., LTD., priority 2019, published 2021).

Data set [1] can be described thus: Changes of blood triglyceride and blood cholesterol by WHS. Type of data set: in vivo. The conditions noted are these: blood, obese mice (HFD) + oral orlistat. Here is the method:
(§1) To analyze in vivo anti-obesity efficacy of WHS, animal models of obesity were first prepared. 8-week-old male C57BL/6N mice (specific-pathogen-free (SPF) grade, 20±2 g, Orient Bio) were set into 7 groups as follows, and 10 mice per each group were tested: as normal control groups, normal mice (con) with no high fat diet and no administration, and obese mice (HFD) with induction of obesity by 30% high fat diet and no administration, and as a positive control group, obese mice with oral administration of orlistat which is an anti-obesity agent. As experimental groups, obese mice with oral administration of WHS of 75 mg/kg, 150 mg/kg, or 300 mg/kg, and normal mice with oral administration of WHS of 300 mg/kg were used. Further, experiments were performed by dividing mice into those which were administered with WHS for 12 weeks at the same time with induction of obesity, and those which were administered with WHS after induction of obesity for 10 weeks. WHS was orally administered for 5 days per week during the administration period. A dark: light cycle was maintained at intervals of 12 hours: 12 hours, and mice were allowed to free access to water. To analyze the effects of WHS on blood triglyceride and blood cholesterol, a hematological-biochemical test of the WHS-administered group with induction of obesity was performed using a biochemical analyzer (AU480 Chemistry Analyzer, Beckman coulter, Calif., USA).

Data set [2] is described as follows: Body weight- and fat-reducing effects of WHS in obese mice. Type of data set: in vivo. As to conditions: obese mice (HFD). Here is the method: as §1, with “water. […] In addition, images of a fat distribution and body fat contents of mice of each experimental group were measured by dual-energy X-ray absorptiometry in” for “water. To analyze”, “the last week” for “the effects of WHS on blood triglyceride and blood cholesterol, a hematological-biochemical test”, “the animal test. […]” for “the WHS-administered group with induction of obesity was performed using a biochemical analyzer (AU480 Chemistry Analyzer, Beckman coulter, Calif., USA).”

Data set [3] can be described thus: Effects of WHS on liver and kidney (serum GOT, GPT, BUN). Type of data set: in vivo. The conditions noted are these: obese mice (HFD) + oral orlistat. Here is the method: as §1, with “examine whether” for “analyze the effects of”, “induced liver and kidney damage in mice, glutamic oxalacetic transaminase (GOT), glutamic pyruvate transaminase (GPT),” for “on blood triglyceride”, “urea nitrogen (BUN)” for “cholesterol, a hematological-biochemical test”, “were measured by serum analysis” for “was performed”

In the next data set the test system is 3T3-L1 cells. The experiment in a line: Fat accumulation inhibition in adipocytes (Oil Red O staining). It is filed as cell-based. As to conditions: 3T3-L1 adipocytes, hydrangenol 2.5 ug/ml. On the procedure: In this experiment, to induce adipocyte differentiation, 3T3-L1 cells were dispensed onto a plate and cultured in a 10% BS medium until the cell density reached 100%. At the cell differentiation stage, hydrangenol-containing hydrangea (Hydrangea serrata) (25 ug/ml), hydrangenol (2.5 ug/ml) or a positive control pioglatazone (10 uM) was added to a 10% FBS differentiation medium (5 μg/ml of insulin, 1 μM dexametasone, 0.5 mM 3-isobutyl-1-methylxanthine), respectively. After 10 days of treatment oil Red-O staining and quantitative analysis were performed to determine how much fat accumulation was inhibited. For visual evaluation, images were taken after staining, and then the stained cells were completely dried, dissolved in dimethyl sulfoxide (DMSO), transferred to a 96-well plate, and absorbance at 450 nm was measured.

With `CCCCCCCCCCC[C@@H](C[C@@H]1OC(=O)[C@H]1CCCCCC)OC(=O)[C@H](CC(C)C)NC=O` [Orlistat, orlistat], in data set [1], the CHOL stood at 115.63 mg/dL, the HDL amounted to 83.70 mg/dL, the LDL is 8.60 mg/dL and the TG amounted to 76.40 mg/dL. Besides, in data set [2] (oral administration at the same time with induction of obesity (12 weeks) or after induction of obesity (10 weeks), FIGS. 4 and 5), the “changes in the body weight” value was “body weight-reducing effects were observed”. The “body fat (dual-energy X-ray absorptiometry, fat weight)” value in data set [2] (oral administration at the same time with or after induction of obesity, FIGS. 6, 7, 8, and 9) is listed as “decreased”. In addition, in data set [3], the BUN turned out to be 19.89 mg/dL, the GOT was 63 U/L and the GPT was determined as 17.6 U/L.
As for `O=C1OC(c2ccc(O)cc2)Cc2cccc(O)c21` (stereo not shown) [HG, 8-hydroxy-3-(4-hydroxyphenyl)-3,4-dihydroisochromen-1-one], the “triglyceride production in adipocytes” value with 3T3-L1 cells is recorded as “suppressed”.
